Laboratory results published in patent publication US20060074032A1 (Academic Pharmaceuticals, Inc., priority 2000, published 2006).
Read-outs that look alike come from different tables or passages of the source.

Experiments:
IKs currents = biological target: T1, IKs currents (Homo sapiens, UniProt P51787); conditions: cited from earlier work
T1 construct: expressed in transfected cells; host or cells: Xenopus oocytes injected with cRNA (pSP64 poly(A) constructs)

rat ileum = assay: Rat ileum GI contractility (isometric muscle contraction); conditions: for Deflection Magnitude, percentage change from control / Slow Wave Amplitude, percentage change from control / Slow Wave Frequency, percentage change from control: n = 5
Procedure: (§1) The ileum was harvested and placed in warmed (37° C.) Krebs […] buffer and oxygenated (95% O2 and 5% CO2). Segments approximately 4.5 cm long were placed on a transducer (Gilson Instruments) and a preload of 2 gm was applied. The tissue was placed in a chamber and bathed in Tyrode's solution (37.5° C.) and gassed with 95% O2 and 5% CO2. Muscle contractions were measured isometrically. After stable contractions were obtained, a study compound was added to the tissue bath and recordings made until a new steady state of contraction was obtained. Following a washout period, contractions were recorded during a new steady state period, then the procedure repeated with at a second dose of the drug being evaluated. Changes in contraction magnitude were recorded as the percentage change from baseline. This procedure is a modification of the technique described by Van Nueten and associates (Van Nueten, et al., Inhibition of dopamine receptors in the stomach: an explanation of the gastrokinetic properties of domperidone. Life Sciences 1978, 23:453-458).

rat colon = assay: Rat colon GI contractility (deflection magnitude); conditions: n = 5 per group
Procedure: as §1, with “23:453-458). […] A segment of rat colon was suspended in a constant temperature bath as described above, and the baseline parameters measured oxygenated Tyrode's solution without erythromycin or chiral isolates.” for “23:453-458).”

T1 sequence (P51787 whole entry): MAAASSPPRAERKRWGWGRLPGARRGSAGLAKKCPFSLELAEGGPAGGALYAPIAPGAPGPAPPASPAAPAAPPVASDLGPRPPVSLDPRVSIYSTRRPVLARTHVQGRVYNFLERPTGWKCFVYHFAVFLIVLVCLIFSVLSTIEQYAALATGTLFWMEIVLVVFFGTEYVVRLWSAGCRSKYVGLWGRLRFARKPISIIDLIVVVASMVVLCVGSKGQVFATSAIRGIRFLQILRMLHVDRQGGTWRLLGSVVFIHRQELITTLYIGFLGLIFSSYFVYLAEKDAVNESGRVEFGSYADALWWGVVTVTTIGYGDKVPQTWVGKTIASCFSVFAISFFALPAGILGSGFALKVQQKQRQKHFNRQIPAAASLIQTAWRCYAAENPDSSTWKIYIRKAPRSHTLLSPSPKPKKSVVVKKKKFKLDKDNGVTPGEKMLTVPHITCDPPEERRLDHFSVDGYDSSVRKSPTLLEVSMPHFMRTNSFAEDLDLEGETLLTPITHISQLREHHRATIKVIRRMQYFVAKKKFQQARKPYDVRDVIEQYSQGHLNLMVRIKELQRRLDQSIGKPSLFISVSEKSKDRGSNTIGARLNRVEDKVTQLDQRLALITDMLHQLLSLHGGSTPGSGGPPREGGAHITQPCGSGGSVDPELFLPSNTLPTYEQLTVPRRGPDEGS

Compound | Reduction of IKs currents (IKs currents; quinidine 10^−4 M) [%] | Reduction of IKs currents (IKs currents; quinidine 10^−6 M) [%] | Effect on slow contractile wave amplitude, slow wave frequency and magnitude of deflection, in words (rat ileum; 10^−7 M to 10^−5 M) | Deflection Magnitude, percentage change from control (rat ileum; erythromycin 10^−5 M) [%] | Slow Wave Amplitude, percentage change from control (rat ileum; erythromycin 10^−5 M) [%] | Slow Wave Frequency, percentage change from control (rat ileum; erythromycin 10^−5 M) [%] | Deflection Magnitude, percentage change from control (rat ileum; erythromycin 10^−6 M) [%] | Slow Wave Amplitude, percentage change from control (rat ileum; erythromycin 10^−6 M) [%] | Slow Wave Frequency, percentage change from control (rat ileum; erythromycin 10^−6 M) [%] | Deflection Magnitude, percentage change from control (rat ileum; erythromycin 10^−7 M) [%] | Slow Wave Amplitude, percentage change from control (rat ileum; erythromycin 10^−7 M) [%] | Slow Wave Frequency, percentage change from control (rat ileum; erythromycin 10^−7 M) [%] | Percent Change in Deflection Magnitude, change from control (rat colon; 10^−5 M) [%] | Percent Change in Deflection Magnitude, change from control (rat colon; 10^−6 M) [%] | Percent Change in Deflection Magnitude, change from control (rat colon; 10^−7 M) [%]
C=C[C@H]1C[N@@]2CC[C@H]1C[C@@H]2[C@@H](O)c1ccnc2ccc(OC)cc12 [quinidine] | 52 | 14 | – | – | – | – | – | – | – | – | – | – | – | – | –
Erythromycin | – | – | dose-related increase | 33 | 17 | 27 | 22 | 15 | 21 | 14 | 12 | 14 | 95 | 70 | 33
